Blank lines part the entries; values can stand above or below the molecule they belong to.
Legend:
Jurkat cells = experiment: 3H-thymidine incorporation (proliferation) assay, Jurkat stimulator cells; assay type: cell-based; settings: 25 μg/mL Mitomycin for 1 h
Protocol: (§1) EL4-GD2+ cells and control Jurkat cells were treated with 25 μg/mL Mitomycin (Sigma) for 1 h to arrest proliferation. After the cells were washed three times with media to remove Mitomycin, they were plated in 96-well plates at 2×10^5 cells/well. Single cell suspensions of splenocytes were obtained from twice immunized (as above) and from vehicle-injected control mice. Cells were separated following the protocol of the EasySep Negative Selection Mouse T-cell Enrichment Kit (Stemcell Technologies). […] The T-cells were plated at a ratio of 10:1 with Mitomycin-treated EL4 or Jurkat cells. As controls, cultures of T-cells alone (no stimulating tumor cells) or T-cells treated with Concanavalin A were used. After 5 days of culture, 0.1 μCi/well 3H-thymidine (Sigma-Aldrich) was added. DNA-incorporated 3H-thymidine was counted by liquid scintillation, and data are reported as average cpm ±SD. […] After 7 days, in vitro, cell viability was assessed by staining with 0.1% Trypan Blue, and cells were counted using a hemocytometer. Bright field images were acquired using an Olympus CKX41 microscope, mounted with an Infinity 1 digital camera and Infinity Analyze software (Lumenera Corporation).

EL4-GD2+ cells = experiment: 3H-thymidine incorporation (proliferation) assay, EL4-GD2+ stimulator cells; assay type: cell-based, mouse; settings: 25 μg/mL Mitomycin for 1 h
Protocol: as §1

T-cells = experiment: 3H-thymidine incorporation of T-cells treated with Concanavalin A; assay type: cell-based, mouse; settings: ConA stimulation; mean±SD
Protocol: as §1

Water solubility = assay type: physicochemical
Source text: Carbohydrates were synthesized as previously described (Gilbert, M., et al. J Biol Chem. 277(1):327-337, 2002; Chiu, C. P., et al. Nat Struc Mol Bio. 11(2)163-170, 2004; and Blixt, O., Carbohydrate Research. 340(12):1963-1972, 2005) by modification of the process for phenylthio-GD2 in which the phenylthio moiety was substituted with a p-aminophenylether in the starting p-aminophenyl-β-D-lactopyranoside (AP-Lac, from Toronto Research Chemicals), that was subsequently used to enzymatically synthesize the respective ganglioside carbohydrate for conjugation to the dendrimer (see below). AP-GD2 and AP-GD3 were water soluble (>20 mg/ml). The measured molecular weights of AP-GD2 (1218 g/mol) and AP-GD3 (927 g/mol) corresponded to expected values. Structures were verified by 1D and 2D NMR spectroscopy and mass spectrometry (EI-MS). The AP-GD2 and AP-GD3 intermediates were purified to >99% purity by size-exclusion chromatography (Superdex 30 16 mm×85 cm column, GE Health Care) before their application in the synthesis of the tetrameric vaccines.

Molecule: CO[C@@]12[C@H](COC(N)=O)C3=C(C(=O)C(C)=C(N)C3=O)N1C[C@@H]1N[C@@H]12 [Mitomycin]
3H-thymidine incorporation of mitomycin-treated Jurkat cells (Jurkat cells): 107±5 cpm
3H-thymidine incorporation of mitomycin-treated EL4-GD2+ cells (EL4-GD2+ cells): 188±4 cpm

Molecule: Concanavalin A [ConA]
3H-thymidine incorporation, T-cells from Tetra-GD2 vaccinated mice (T-cells): 19,834±309 cpm
3H-thymidine incorporation, T-cells from naive mice (T-cells): 21,457±504 cpm

water solubility (in words) (Water solubility): water-soluble
Molecule: p-amino phenyl ether-GD2 [AP-GD2]

water solubility (in words) (Water solubility): water-soluble
Molecule: p-amino phenyl ether-GD3 [AP-GD3]

Reference: patent publication US11786586B2, “Carbohydrate structures and uses thereof” (AOA Dx, priority 2016, dated 2023)
